The record followed here is US12239643B2, “Therapeutic agent for inflammatory diseases, autoimmune diseases, fibrotic diseases, and cancer diseases” (MEIJI SEIKA PHARMA CO., LTD., priority 2018, dated 2025).

Where two headings read alike, the source gives them in different places.

The test system of data set [1] is oxazolone-induced auricle edema, BALB/c mice. Put plainly: Hapten repeated application mouse chronic dermatitis model (oral, topical). Particulars: oral, 0.3 to 10 mg/kg twice a day for 10 days. It counts as in vivo. The method, then: Evaluation was carried out using female BALB/c mice (7 to 8 weeks of age). First, the hair of the abdomen of the mice was treated with a hair clipper, and then 150 μL of a 3% oxazolone acetone/ethanol solution was applied to the abdomen as a hapten. One week later, 20 μL/ear of 1% oxazolone acetone/ethanol solution was applied to the outer surface of the auricle of both ears of the mice 3 times/week to induce inflammation. A 1% oxazolone-acetone/ethanol solution was applied every other day for 10 days from 1 week after the start of inflammation induction. In addition, for 10 days from 1 week after the start of inflammation induction, the test compound suspended in 0.5% w/v methylcellulose (0.5% MC) was orally administered at 0.3 to 10 mg/kg twice a day (10 μL/g), or 20 μL of a 0.3 to 3% test compound dissolved in an acetone/ethanol solution was applied once or twice a day (topical administration). A 1% oxazolone was not applied to the blank. The control was one in which 1% oxazolone was applied and only 0.5% MC was orally administered without using the test compound, or only an acetone/ethanol solution was applied.
After administration for 10 days, auricle thickness was measured using a dial thickness gauge, and the changes in auricular thickness before the treatment (immediately before the start of administration of the test compound) and after the treatment (after the administration of the test compound for 10 days) were used to calculate the edema suppression rate by the following formula. Edema Suppression Rate (%)={1−(Auricle Thickness After Treatment by Test Compound−Auricle Thickness Before Treatment by Test Compound)/(Auricle Thickness After Treatment of Control−Auricle Thickness Before Treatment of Control)}×100
The measurement results obtained by measuring the edema suppression rate at the time of oral administration of each test compound by the above method were evaluated in accordance with the following evaluated basis; A: 70% or more, B: 40% or more and less than 70%, and C: less than 40%. In addition, the measurement results obtained by measuring the edema suppression rate at the time of topical administration of each test compound were evaluated in accordance with the following evaluated basis; A: 100% or more, B: 70% or more and less than 100%, and C: less than 70%.

Data set [2] concerns PDE4. Put plainly: Evaluation of PDE4 inhibitory activity, scintillation proximity assay. It is filed as biochemical. Particulars: for PDE4 inhibitory activity: summary in words of Tables 57 to 69. Put shortly:
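IC50 was derived from inhibition curves, referenced to an enzyme-free blank and a DMSO-only control. Compound, PDE4 preparation and tritiated cAMP reacted 120 min at RT in Tris-HCl buffer (pH 7.4) with MgCl2, EGTA and BSA; YSi-SPA beads with ZnSO4 bound product before scintillation counting.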
Background: Scintillation proximity formats need no separation of bound from free tracer.

In data set [3] the test system is TNFα. Put plainly: Cytokine suppression using whole human blood: TNFα (lipopolysaccharide stimulus). It counts as cell-based. Particulars: Homo sapiens, human whole blood; read-out: TNFα Inhibitory Activity, Human Whole Blood (Test Example 3). As to the method:
The test compound dissolved in dimethyl sulfoxide was added to a 96-well plate, and RPMI-1640 medium and human peripheral blood containing sodium heparin were added, followed by culture at 37° C. under 5% CO2 for 1 hour. A medium containing only dimethyl sulfoxide instead of the test compound was added to the control well. To each well, lipopolysaccharide (final concentration 10 ng/mL) as a TNFα production stimulant, or phytohaemagglutinin (final concentration 20 μg/mL) as an IL-17A production stimulant, or CytoStim reagent ( 1/100 concentration) and CD28 antibody (final concentration 2.5 ng/mL) as an IL-4 production stimulant and an IL-5 production stimulant were added, followed by culture at 37° C. under 5% CO2. The culture was carried out for about 18 hours for the evaluation of the amount of TNFα, and for about 48 hours for the evaluation of the amounts of IL-17A, IL-4, and IL-5.
After collecting the culture supernatant after culturing, the amount of each cytokine was measured by the sandwich ELISA method. The cytokine production suppression rate (inhibition rate) by the test compound was calculated by the following formula from the cytokine production amount when the test compound was added, with the cytokine production amount for the control well as 100%. Inhibition Rate={1−(Cytokine Amount at Addition of Each Test Compound)/(Cytokine Amount for Control Well)}×100
In addition, the cytokine inhibitory activity (concentration for the inhibition rate of 50%) of the test compound was calculated from the inhibition curves based on the inhibition rates for various concentrations of the test compound.
The measurement results obtained by measuring the TNFα inhibitory activity and IL-5 inhibitory activity (50% inhibitory concentration) of the test compounds by the above method were evaluated in accordance with the following evaluated basis; A: less than 100 nM, B: 100 nM or more and less than 500 nM, and C: 500 nM or more. In addition, the measurement results obtained by measuring the IL-17A inhibitory activity and IL-4 inhibitory activity (50% inhibitory concentration) of the test compounds were evaluated in accordance with the following evaluated basis; A: less than 500 nM, B: 500 nM or more and less than 5000 nM, and C: 5000 nM or more.

The nature of data set [4]: Hepatic metabolic stability (rat liver microsome method). It counts as in vitro ADME. Particulars: rat liver microsomes 0.5 mg/mL, test substance 1 μM, NADPH 1 mM, 37° C., 30 minutes. Put shortly:
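Scored by % parent left after 30 min (30 min/0 min ×100, LC-MS), banded A ≥75%, B 60–<75%, C 45–<60%, D <45%. Incubation: 1 μM compound, 0.5 mg/mL rat microsomes, pH 7.4 phosphate buffer, 37° C, 5 min preincubation, NADPH 1 mM started, acetonitrile quench.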
Background: Liver microsomes are vesicles of endoplasmic reticulum, rich in cytochrome P450 enzymes.

Data set [5] concerns TGF-β. Put plainly: TGF-β inhibitory activity using THP1 cells differentiated into macrophages. It counts as cell-based. Particulars: Homo sapiens, THP-1; THP1 cells differentiated into macrophages, lipopolysaccharide 1 μg/mL, about 7 hours; read-out: TFG-β Inhibitory Activity (Test Example 6). As to the method: The TGF-β inhibitory activity was measured using THP1 cells as follows. First, THP1 cells were seeded on a 24-well culture plate at […], and culture was carried out overnight at 37° C. and 5% CO2 in RPMI-1640 medium (containing 10% fetal bovine serum, penicillin, and streptomycin) supplemented with 100 nM phorbol myristate acetate. After that, the cells were differentiated into macrophages by changing to RPMI-1640 medium without phorbol myristate acetate, followed by further culture at 37° C. under 5% CO2 overnight. Next, the THP1 culture plate was washed once with PBS(−) 1 mL/well, and then the test compound and lipopolysaccharide (final concentration 1 μg/mL) were added, followed by culture at 37° C. under 5% CO2 for about 7 hours. After culturing, the entire amount of the medium was collected, and the amount of TGF-β in the centrifuged supernatant was quantified by the sandwich ELISA method. The non-addition of lipopolysaccharide was used as a blank, and the control was obtained by adding only dimethyl sulfoxide instead of the test compound, and the inhibition rate of the test compound against the control was calculated by the following formula. Inhibition Rate (%)={1−(Value at Addition of Each Test Compound−Blank Value)/(Control Value−Blank Value)}×100
In addition, the TGF-β inhibitory activity (concentration for the inhibition rate of 50%) of the test compound was calculated from the inhibition curves based on the inhibition rate for various concentrations of the test compound.
The measurement results obtained by measuring the TFG-β inhibitory activity (50% inhibitory concentration) of the test compounds by the above method were evaluated in accordance with the following evaluated basis; A: less than 1 μM, and B: 1 μM or more.

Setting [6] is: finer grading of compounds rated A in Evaluation 1, read-out: PDE4 Inhibitory Activity (Evaluation 2).
Setting [7] is: scintillation proximity assay, class symbols of Evaluation 1, read-out: PDE4 Inhibitory Activity (concentration for the inhibition rate of 50%, IC50), Evaluation 1.
Where [8] appears, read: scintillation proximity assay, read-out: PDE4 Inhibitory Activity (Evaluation 1; concentration for the inhibition rate of 50%).

With `COC(C)(C)c1cc(-c2nccs2)c2oc(N3CC4CC(C3)N4)nc2c1C(F)(F)F` [Example 176, 2-(3,6-Diazabicyclo[3.1.1]heptan-3-yl)-5-(2-methoxypropan-2-yl)-7-(thiazol-2-yl)-4-(trifluoromethyl)benzo[d]oxazole], the “Mouse Chronic Dermatitis Model (Test Example 8), Oral: edema suppression rate” value (“Mouse Chronic Dermatitis Model” below) in data set [1] was “B (B: 40% or more and less than 70%)”. In addition, the IC50 in data set [2] (setting [6]) is 1 to 11 nM; in data set [2] (setting [7]) it was below 100 nM; in data set [3], 100 to 500 nM. In data set [2], the PDE4 inhibitory activity result is on record as “particularly excellent”.

On to `OCC(F)(F)Oc1ccc(-c2nccs2)c2oc(N3CC4CC(C3)N4)nc12` [Example 249, 2-((2-(3,6-Diazabicyclo[3.1.1]heptan-3-yl)-7-(thiazol-2-yl)benzo[d]oxazol-4-yl)oxy)-2,2-difluoroethan-1-ol], for which the “Mouse Chronic Dermatitis Model” value in data set [1] is “B (B: 40% or more and less than 70%)”. Further, the IC50 was at most 1 nM in data set [2] (setting [6]), below 100 nM in data set [2] (setting [8]) and below 100 nM in data set [3]. Moreover, the PDE4 inhibitory activity result in data set [2] is “particularly excellent”. Moreover, the “Residual ratio (% remaining for 30-minute reaction)” value in data set [4] is “B (B: 60% or more and less than 75%)”.

As for `CC(C)(O)c1cc(-c2nccs2)c2oc(N3CC4CCC(C3)N4)nc2c1OC(F)(F)F` [Example 195, 2-(2-(3,8-diazabicyclo[3.2.1]octan-3-yl)-7-(thiazol-2-yl)-4-(trifluoromethoxy)benzo[d]oxazol-5-yl)propan-2-ol], the “Mouse Chronic Dermatitis Model” value in data set [1] was “B (B: 40% or more and less than 70%)”. The IC50 in data set [2] (setting [6]) is at most 1 nM; in data set [2] (setting [8]), below 100 nM; in data set [5], below 1000 nM; in data set [3] it was 100 to 500 nM. Also, the PDE4 inhibitory activity entry in data set [2] is reported as “particularly excellent”.

For the molecule `OC(c1ccc(-c2nccs2)c2oc(N3CC4CCC(C3)N4)nc12)C(F)(F)F` (stereo not shown) [Example 118, 1-(2-(3,8-Diazabicyclo[3.2.1]octan-3-yl)-7-(thiazol-2-yl)benzo[d]oxazol-4-yl)-2,2,2-trifluoroethan-1-ol], the “Mouse Chronic Dermatitis Model” value in data set [1] is “B (B: 40% or more and less than 70%)”. Also, the results for the IC50 in data set [2] (setting [6]), in data set [2] (setting [7]) and in data set [3] were 1 to 11 nM, below 100 nM and 100 to 500 nM, respectively. Moreover, the PDE4 inhibitory activity entry in data set [2] is given as “particularly excellent”.

In the case of `COC(C)(C)c1cc(-c2nccs2)c2oc(N3CC4CCC(C3)N4)nc2c1OC(F)(F)F` [Example 198, 2-(3,8-Diazabicyclo[3.2.1]octan-3-yl)-5-(2-methoxypropan-2-yl)-7-(thiazol-2-yl)-4-(trifluoromethoxy)benzo[d]oxazole], the IC50 in data set [2] (setting [6]) was at most 1 nM; in data set [2] (setting [8]) it was below 100 nM; in data set [3], 100 to 500 nM. The PDE4 inhibitory activity entry in data set [2] is recorded as “particularly excellent”.

As to `COC(C)(C)c1cc(-c2nccs2)c2oc(N3CC4CC(C3)N4)nc2c1OC(F)(F)F` [Example 199, 2-(3,6-Diazabicyclo[3.1.1]heptan-3-yl)-5-(2-methoxypropan-2-yl)-7-(thiazol-2-yl)-4-(trifluoromethoxy)benzo[d]oxazole], the “Mouse Chronic Dermatitis Model” value in data set [1] is “B (B: 40% or more and less than 70%)”. The IC50 is 1 to 11 nM in data set [2] (setting [6]), below 100 nM in data set [2] (setting [8]) and below 1000 nM in data set [5]. Besides, the PDE4 inhibitory activity entry in data set [2] is on record as “particularly excellent”.
